From ChEMBL document CHEMBL1139128, “Structure-activity relationship analysis of a novel necroptosis inhibitor, Necrostatin-5” (Bioorg Med Chem Lett, 2007) come the findings set out here.

This experiment has as its system Jurkat. The experiment is described as follows: Inhibition of TNF-alpha-induced necroptosis in FADD-deficient Jurkat T cells. The experiment is classed as functional, cell-based. Set-up: concentration or dose not given beside the values. The note with it: for EC50: Jurkat.

Active and inactive are the calls of the source. How the calls were made is not given here.

For `C#CCSc1nc2sc(CC)c(C)c2c(=O)n1-c1ccc(OC)cc1`, where the note is “Homo sapiens”, the outcome was inactive.

On to `O=c1c2c3c(sc2nc(SCc2ccccc2)n1-c1ccccc1)CCCC3`, for which the result (Homo sapiens) was inactive.

As for `COC(=O)CSc1nc2sc3c(c2c(=O)n1-c1ccc(OC)cc1)CCCC3`, the result (Homo sapiens) was inactive.

Regarding `Cc1ccc(-n2c(SCC#N)nc3sc4c(c3c2=O)CCC4)cc1C`, the outcome (Homo sapiens) was inactive.

For the compound `CSc1nc2sc(C)c(C)c2c(=O)n1-c1ccc(N(C)C)cc1`, where the note is “Homo sapiens”, the result was inactive.

In the case of `COc1ccc(-n2c(SCC#N)nc3sc4c(c3c2=O)CC(C)CC4)cc1` (stereo not drawn), for the setting “Homo sapiens”, the result was inactive.

In the case of `COc1ccc(-n2c(S(C)(=O)=O)nc3sc4c(c3c2=O)CCCC4)cc1`, the outcome (Homo sapiens) was inactive.

For `CSc1nc2sc3c(c2c(=O)n1-c1ccc(OC(F)(F)F)cc1)CCC3`, the result (Homo sapiens) was inactive.

In the case of `COc1ccc(-n2c(SCC#N)nc3sc(C(C)C)c(C)c3c2=O)cc1`, the result (Homo sapiens) was inactive.

For the compound `CSc1nc2sc3c(c2c(=O)n1-c1ccc2c(c1)OCO2)CCCC3`, the outcome (Homo sapiens) was inactive.

In the case of `COc1ccc(-n2c(SC[N+](=O)[O-])nc3sc4c(c3c2=O)CCCC4)cc1`, the outcome (Homo sapiens) was inactive.

As to `COc1ccc(-n2c(SC)nc3sccc3c2=O)cc1`, the outcome (Homo sapiens) was inactive.

One may read the EC50 as the midpoint of the concentration-response curve. In turn, `COc1ccccc1-n1c(SCC#N)nc2sc3c(c2c1=O)CCCC3` returned an Activity of 51.2%. Besides, the EC50 (Homo sapiens) was 17.8 µM.

For the compound `COc1ccc(-n2c(SCC#N)nc3sc(C)c(C)c3c2=O)cc1`, the Activity is reported as 100%. Also, where the note is “Homo sapiens”, the concentration giving a half-maximal response (EC50) was 0.45 µM.

As to `COc1ccc(-n2c(SCCO)nc3sc(C)c(C)c3c2=O)cc1`, the Activity was 78%. This compound yielded an EC50 (Homo sapiens) of 7.26 µM.

In the case of `CCc1cc2c(=O)n(-c3ccc(OC)cc3)c(SCC#N)nc2s1`, the result (Homo sapiens) was inactive.

In the case of `CCc1sc2nc(SC)n(-c3ccc(OC)cc3)c(=O)c2c1C`, the result (Homo sapiens) was inactive.

Take `N#CCSc1nc2sc3c(c2c(=O)n1-c1ccc2c(c1)OCCO2)CCCC3`: the Activity is on record as 100%. In addition, the EC50 (Homo sapiens) worked out at 0.22 µM.

`Cc1ccc(-n2c(SCC#N)nc3sc4c(c3c2=O)CCCC4)cc1`: the Activity is reported as 48.6%. Also, under “Homo sapiens”, the EC50 was determined as 1.8 µM.

With `N#CCSc1nc2sc3c(c2c(=O)n1-c1cccc(Cl)c1)CCCC3`, the Activity came out at 66.9%. For the setting “Homo sapiens”, this compound registered an EC50 of 5.1 µM.

In the case of `C=CCSc1nc2sc3c(c2c(=O)n1-c1ccccc1)CCCC3`, under “Homo sapiens”, the result was inactive.

Take `COc1ccc(-n2c(SCCl)nc3sc4c(c3c2=O)CCCC4)cc1`: the Activity is listed as 85%. The compound further showed an EC50 (Homo sapiens) of 2.22 µM.

For the compound `CCc1c(C)sc2nc(SCCO)n(-c3ccc4c(c3)OCO4)c(=O)c12`, the result (Homo sapiens) was inactive.

As for `CSc1nc2sc3c(c2c(=O)n1-c1ccc(C)c(C)c1)CC(C)CC3` (stereo not drawn), the outcome (Homo sapiens) was inactive.

Turning to `COc1ccc(-n2c(SCC(N)=O)nc3sc4c(c3c2=O)CCCC4)cc1`, for the setting “Homo sapiens”, the result was inactive.

As to `CSc1nc2sc(C)c(C)c2c(=O)n1-c1ccc(C)c(C)c1`, the outcome (Homo sapiens) was inactive.

Take `COc1ccc(-n2c(SC)nc3sc4c(c3c2=O)CCCC4)cc1OC`: the Activity was found to be 54.5%. The compound further showed an EC50 (Homo sapiens) of 16.7 µM.

On to `CN(C)c1ccc(-n2c(SCC#N)nc3sc4ccccc4c3c2=O)cc1`, for which, where the note is “Homo sapiens”, the outcome was inactive.

With `C#CCSc1nc2sc(CCC)c(C)c2c(=O)n1-c1ccc(OC)cc1`, the outcome (Homo sapiens) was inactive.

`COc1ccc(-n2c(SCc3ccccc3)nc3sc4c(c3c2=O)CCC4)cc1`: the result (Homo sapiens) was inactive.

For the compound `COc1ccc(-n2c(SC)nc3sc4c(c3c2=O)CC(C)CC4)cc1` (stereo not drawn), the outcome (Homo sapiens) was inactive.

As to `COc1ccc(-n2c(SCC#N)nc3sc4c(c3c2=O)CCCC4)cc1OC`, the Activity was found to be 57%. Under “Homo sapiens”, a half-maximal effect (EC50) was put at 5.7 µM.

For the compound `COc1ccc(-n2c(SCC#N)nc3sc4c(c3c2=O)CN(C(C)C)CC4)cc1`, the outcome (Homo sapiens) was inactive.

`O=c1c2c3c(sc2nc(SCc2ccc([N+](=O)[O-])cc2)n1-c1ccccc1)CCCC3`: where the note is “Homo sapiens”, the outcome was inactive.
